Key:
[1] = test system: Ear Edema Caused by Xylene; assay: Inhibition of Ear Edema Caused by Xylene (II), Table 9; format: in vivo, CF-1 mice; conditions: i.p., 2 h
Description: Inhibition of Ear Edema Caused by Xylene (II)
(§1) CF-1 mice, 25-30 g body weight, six animals per group, were used. The requisite amount of the test compound was dissolved is dimethyl sulfoxide or 0.5% methylcellulose and 100 μL of the solution was injected intraperitoneally 30 minutes prior to the administration the irritant. The irritant xylene was applied to the surface of the ear, 20 μL to the upper surface and 20 μL to the lower surface, After two hours, the thickness of the ear was measured to 0.01 mm by a micrometer with the loose drag positioned at the lateral-most edge of the mid-point of the pinna. Data were calculated as the percent inhibition by the test compound of increased ear thickness compared to control animals receiving only the irritant.

[2] = test system: Ear Edema Caused by Arachidonic Acid; assay: Inhibition of Ear Edema Caused by Arachidonic Acid (II), Table 8; format: in vivo, CF-1 mice; conditions: i.p., sixty minutes
Description: Inhibition of Ear Edema Caused by Arachidonic Acid (II)
as §1, with “of 100 mg/kg of arachidponic acid. A solution of this irritant, b 100 mg/mL in ethanol,” for “the irritant. The irritant xylene”, “5” for “20”, “surface.” for “surface,”, “sixty minutes,” for “two hours,”, “inhibityion” for “inhibition”, “recieveing” for “receiving”

[3] = test system: Ear Edema Caused by Oxazolone; assay: Inhibition of Ear Edema Caused by Oxazolone (II), Table 10; format: in vivo, CF-1 mice; conditions: i.p., 24 h
Description: Inhibition of Ear Edema Caused by Oxazolone (II)
CF-1 mice, 25-30 g body weight, five to six animals per group were used. The mice were sensitized to the irritant two weeks prior to the test by dribbling 100 μL of a 3% solution of oxazolone in acetone onto the abdominal skin of the animal. Test compounds were administered intraperitoneally as follows. […] The irritant, 3% oxazolone in acetone, was added to the surface of the ear, 5 μL added to the upper surface and 5 μL added to the lower surface. After twenty four hours, the thickness of the ear was measured to 0.01 mm by a micrometer with loose drag, positioned at the lateral-most edge of the mid-point of the pinna. Data were calculated as the inhibition of increased ear thickness compared to control animals' receiving only the irritant.

[4] = test system: Ear Edema Caused By Tetradecanoylphorbol Acetate; assay: Inhibition of Ear Edema Caused by Tetradecanoylphorbol Acetate (II), Table 7; format: in vivo, CF-1 Mice; conditions: i.p., 3 h
Description: Inhibition of Ear Edema Caused by Tetradecanoylphorbol Acetate (II)
CF-1 Mice, 25-30 g body weight, six animals per group were used. Test compounds were administered intraperitoneally or topically as follows. For intraperitoneal administration, the test compound was dissolved in dimethyl sulfoxide or 0.5% methylcellulose and 100 microliters was injected 30 minutes prior to irritant (100 mg/kg, i.p.). […] A solution of the irritant, tetradecanoylphorbol acetate, 200 μg/mL, was added to the surface of the ear, 5 μL to the upper surface and 5 μL to the lower surface. After three hours, the thickness of the ear was measured to 0.01 mm by a micrometer with loose drag, positioned at the lateral-most edge of the mid-point of the pinna. Data were calculated as the inhibition of increased ear thickness compared to control animals receiving only the irritant.

| SMILES | % Inhibition ([1]; 10 mg/kg) [%] | % Inhibition ([1]; 30 mg/kg) [%] | % Inhibition ([1]; 100 mg/kg) [%] | % Inhibition Intraperitoneal ([2]; 10 mg/kg) [%] | % Inhibition Intraperitoneal ([2]; 30 mg/kg) [%] | % Inhibition Intraperitoneal ([2]; 100 mg/kg) [%] | % Inhibition Intraperitoneal ([3]; 10 mg/kg) [%] | % Inhibition Intraperitoneal ([3]; 30 mg/kg) [%] | % Inhibition Intraperitoneal ([3]; 100 mg/kg) [%] | % Inhibition Intraperitoneal ([4]; 10 mg/kg) [%] | % Inhibition Intraperitoneal ([4]; 30 mg/kg) [%] | % Inhibition Intraperitoneal ([4]; 100 mg/kg) [%] |
| --- | --- | --- | --- | --- | --- | --- | --- | --- | --- | --- | --- | --- |
| Cc1cccc2c1-c1ccccc1C2COC(=O)N[C@@H](CC(C)C)C(=O)O (stereo partly drawn) [NPC 15325, N-{[9H-(4-Methylfluoren-9-yl)methoxy]carbonyl}-L-leucine] | 16 | 25 | 78 | 52 | 63 | 100 | 22 | 24 | 49 | 36 | 11 | 82 |
| CCOC(=O)[C@H](CC(C)C)NC(=O)OCC1c2ccccc2-c2ccccc21 [NPC 15327, N-[(9H-Fluoren-9-ylmethoxy)carbonyl]-L-leucine ethyl ester] | 18 | 8 | 19 |  |  |  |  |  |  | 37 | 64 | 77 |
| CC(C)C[C@H](NC(=O)OCC1c2ccccc2-c2ccccc21)C(=O)OCc1ccccc1 [NPC 15328, N-[(9H-Fluoren-9-ylmethoxy)carbonyl]-L-leucine benzyl ester] | 19 | 29 | 13 |  |  |  |  |  |  | 49 | 47 | 62 |
| CCCC[C@H](NC(=O)CCC1c2ccccc2-c2ccccc21)C(=O)O [NPC 15894, N-[3-(9H-Fluoren-9-yl)propionyl]-L-norleucine, quarter hydrate] | 0 | 0 | 34 | 22 | 40 | 60 | 29 | 14 | 35 | 11 | 0 | 68 |
| O=C(CCC1c2ccccc2-c2ccccc21)N[C@@H](CCc1ccccc1)C(=O)O [NPC 15895, N-[3-(9H-Fluoren-9-yl)propionyl]-L-Homophenylalanine, quarter hydrate] | 0 | 0 | 51 | 14 | 26 | 52 | 4 | 12 | 71 | 68 | 71 | 67 |
| O=C(CCC1c2ccccc2-c2ccccc21)N[C@@H](Cc1ccccc1)C(=O)O [NPC 15896, N-[3-(9H-Fluoren-9-yl)propionyl]-L-Phenylalanine] | 28 | 24 | 21 | 16 | 24 | 72 |  |  |  | 0 | 0 | 84 |
| Cc1cccc2c1-c1ccccc1C2COC(=O)N[C@H](C(=O)O)C(C)(C)C (stereo partly drawn) [NPC 15904, N-{[9H-(4-Methylfluoren-9-yl)methoxy]carbonyl}-L-tert-leucine] | 0 | 10 | 68 | 19 | 54 | 79 | 21 | 54 | 79 | 16 | 0 | 43 |
| CCCC[C@H](NC(=O)OCC1c2ccccc2-c2cccc(C)c21)C(=O)O (stereo partly drawn) [NPC 15951, N-{[9H-(1-Methylfluoren-9-yl)methoxy]carbonyl}-L-norleucine] | 40 | 62 | 62 | 11 | 18 | 56 | 33 | 23 | 49 | 41 | 39 | 70 |
| Cc1cccc2c1C(COC(=O)N[C@H](C(=O)O)C(C)(C)C)c1ccccc1-2 (stereo partly drawn) [NPC 15952, N-{[9H-(1-Methylfluoren-9-yl)methoxy]carbonyl}-L-tert-leucine] | 29 | 39 | 43 | 43 | 47 | 50 | 21 | 24 | 72 | 27 | 75 | 67 |
| Cc1cccc2c1-c1ccccc1C2COC(=O)N[C@@H](CCc1ccccc1)C(=O)O (stereo partly drawn) [NPC 15961, N-{[9H-(4-Methylfluoren-9-yl)methoxy]carbonyl}-L-homophenylalanine] | 41 | 41 | 57 |  |  |  | 29 | 23 | 92 |  |  |  |
| COc1ccc2c(c1)C(CCC(=O)N[C@@H](CC(C)C)C(=O)O)c1ccccc1-2 (stereo partly drawn) [NPC 15968, N-{9H-[3-(2-Methoxyfluoren-9-yl)propionyl]}-L-leucine] | 23 | 62 | 57 |  |  |  | 24 | 24 | 66 |  |  |  |
| Cc1cccc2c1C(CCC(=O)N[C@@H](CCc1ccccc1)C(=O)O)c1ccccc1-2 (stereo partly drawn) [NPC 15974, N-{9H-[3-(1-Methylfluoren-9-yl)propionyl]}-L-homophenylalanine] | 48 | 57 | 59 |  |  |  | 0 | 23 | 48 |  |  |  |
| Cc1cccc2c1-c1ccccc1C2CCC(=O)N[C@@H](CC(C)C)C(=O)O (stereo partly drawn) [NPC 15975, N-{9H-[3-(4-Methylfluoren-9-yl)propionyl]}-L-leucine quarter hydrate] | 51 | 22 | 49 |  |  |  | 36 | 19 | 73 |  |  |  |
| CCCC[C@H](NC(=O)CCC1c2ccccc2-c2cccc(C)c21)C(=O)O (stereo partly drawn) [NPC 15976, N-[9H-[3-(1-Methylfluoren-9-yl)propionyl]}-L-norleucine, quarter hydrate] | 59 | 33 | 62 |  |  |  | 10 | 8 | 73 |  |  |  |

From patent publication US5079260A, “Method for treating inflammation and compounds and compositions suitable for use therein” (Nova Pharmaceutical Corporation, priority 1990, dated 1992)
